Key:
[1] = biological target: T1, cGMP-dependent protein kinase 1 (Homo sapiens) (UniProt Q13976); experiment: Inhibition of human PKG1a using LRRASLG as substrate at 1 uM in presence of 32P-ATP by Hotspot assay relative to control; values are per cent of control
T1 sequence (whole entry): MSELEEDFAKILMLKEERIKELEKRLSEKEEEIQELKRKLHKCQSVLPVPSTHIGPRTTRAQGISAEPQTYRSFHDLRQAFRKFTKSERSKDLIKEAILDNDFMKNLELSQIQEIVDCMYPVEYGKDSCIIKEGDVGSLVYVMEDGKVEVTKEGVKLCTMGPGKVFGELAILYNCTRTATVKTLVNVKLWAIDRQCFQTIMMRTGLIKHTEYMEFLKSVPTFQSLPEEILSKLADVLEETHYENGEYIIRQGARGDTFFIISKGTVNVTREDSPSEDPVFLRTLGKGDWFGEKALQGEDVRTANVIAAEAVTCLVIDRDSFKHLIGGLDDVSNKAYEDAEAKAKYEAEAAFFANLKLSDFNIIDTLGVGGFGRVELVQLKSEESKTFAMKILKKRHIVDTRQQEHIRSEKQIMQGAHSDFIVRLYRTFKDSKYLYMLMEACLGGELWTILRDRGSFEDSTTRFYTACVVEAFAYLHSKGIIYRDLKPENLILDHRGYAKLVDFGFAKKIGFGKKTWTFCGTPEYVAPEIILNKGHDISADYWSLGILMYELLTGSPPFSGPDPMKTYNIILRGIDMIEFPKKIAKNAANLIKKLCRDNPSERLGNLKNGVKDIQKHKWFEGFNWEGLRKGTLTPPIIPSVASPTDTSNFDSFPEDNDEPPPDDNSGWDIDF

[2] = biological target: T2, Serine/threonine-protein kinase DCLK2 (Homo sapiens) (UniProt Q8N568); experiment: Inhibition of human DCAMKL2 using KKLNRTLSFAEPG as substrate at 1 uM in presence of 32P-ATP by Hotspot assay relative to control; values are per cent of control
T2 sequence (whole entry): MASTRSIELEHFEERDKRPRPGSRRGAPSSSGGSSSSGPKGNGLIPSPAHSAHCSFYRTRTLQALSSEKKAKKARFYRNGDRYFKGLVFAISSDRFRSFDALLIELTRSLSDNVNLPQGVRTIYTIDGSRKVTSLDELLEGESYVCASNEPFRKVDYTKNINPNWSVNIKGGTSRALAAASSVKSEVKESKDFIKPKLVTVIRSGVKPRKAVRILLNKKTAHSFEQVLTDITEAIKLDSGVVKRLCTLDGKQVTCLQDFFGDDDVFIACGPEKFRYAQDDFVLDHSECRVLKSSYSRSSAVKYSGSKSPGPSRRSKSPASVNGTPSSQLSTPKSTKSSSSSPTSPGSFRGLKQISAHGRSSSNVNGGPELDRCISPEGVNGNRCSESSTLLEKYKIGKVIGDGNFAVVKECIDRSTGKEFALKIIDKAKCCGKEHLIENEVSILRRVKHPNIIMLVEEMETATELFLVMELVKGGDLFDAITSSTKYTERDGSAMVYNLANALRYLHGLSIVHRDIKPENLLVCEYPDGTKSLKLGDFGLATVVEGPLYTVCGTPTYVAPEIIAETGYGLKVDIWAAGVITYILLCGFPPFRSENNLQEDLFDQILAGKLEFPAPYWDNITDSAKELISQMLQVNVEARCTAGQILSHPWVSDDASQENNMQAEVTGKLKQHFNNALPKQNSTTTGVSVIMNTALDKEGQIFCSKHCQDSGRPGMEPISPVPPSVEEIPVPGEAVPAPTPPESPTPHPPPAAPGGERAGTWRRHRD

[3] = biological target: T3, Serine/threonine-protein kinase Sgk1 (Homo sapiens) (UniProt O00141); experiment: Inhibition of human SGK1 using KGSGSGRPRTSSFAEG as substrate at 1 uM in presence of 32P-ATP by Hotspot assay relative to control; values are per cent of control
T3 sequence (whole entry): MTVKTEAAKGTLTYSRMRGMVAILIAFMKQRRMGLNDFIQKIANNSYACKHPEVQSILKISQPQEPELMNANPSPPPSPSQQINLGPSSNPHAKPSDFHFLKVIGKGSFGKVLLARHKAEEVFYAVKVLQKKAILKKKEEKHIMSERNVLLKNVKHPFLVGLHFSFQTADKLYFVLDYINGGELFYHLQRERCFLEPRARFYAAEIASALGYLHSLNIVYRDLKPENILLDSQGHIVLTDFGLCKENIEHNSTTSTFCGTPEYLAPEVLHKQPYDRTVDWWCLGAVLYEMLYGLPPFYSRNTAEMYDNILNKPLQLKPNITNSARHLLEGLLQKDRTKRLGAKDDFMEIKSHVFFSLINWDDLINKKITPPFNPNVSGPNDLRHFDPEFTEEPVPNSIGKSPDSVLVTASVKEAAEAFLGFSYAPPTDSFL

[4] = biological target: Tyrosine-protein kinase Fyn (Homo sapiens) (UniProt P06241); experiment: Inhibition of human FYN using poly[Glu:Tyr] (4:1) as substrate at 1 uM in presence of 32P-ATP by Hotspot assay relative to control; values are per cent of control
[5] = biological target: Cyclin-dependent kinase 4/cyclin D1 (Homo sapiens) (UniProt P11802+P24385); experiment: Inhibition of human CDK4/cyclin D1 using RB Protein as substrate at 1 uM in presence of 32P-ATP by Hotspot assay relative to control; values are per cent of control
[6] = biological target: CDK6/cyclin D3 (Homo sapiens) (UniProt P30281+Q00534); experiment: Inhibition of human CDK6/cyclin D3 using RB Protein as substrate at 1 uM in presence of 32P-ATP by Hotspot assay relative to control; values are per cent of control
[7] = biological target: Serine/threonine-protein kinase 10 (Homo sapiens) (UniProt O94804); experiment: Inhibition of human LOK/STK10 using RLGRDKYKTLRQIRQ as substrate at 1 uM in presence of 32P-ATP by Hotspot assay relative to control; values are per cent of control
[8] = biological target: TGF-beta receptor type-2 (Homo sapiens) (UniProt P37173); experiment: Inhibition of human TGFBR2 using myelin basic protein as substrate at 1 uM in presence of 32P-ATP by Hotspot assay relative to control; values are per cent of control
[9] = biological target: Vascular endothelial growth factor receptor 3 (Homo sapiens) (UniProt P35916); experiment: Inhibition of human FLT4/VEGFR3 using poly[Glu:Tyr] (4:1) as substrate at 1 uM in presence of 32P-ATP by Hotspot assay relative to control; values are per cent of control
Vascular endothelial growth factor receptor 3 (Homo sapiens), sequence (P35916 whole entry): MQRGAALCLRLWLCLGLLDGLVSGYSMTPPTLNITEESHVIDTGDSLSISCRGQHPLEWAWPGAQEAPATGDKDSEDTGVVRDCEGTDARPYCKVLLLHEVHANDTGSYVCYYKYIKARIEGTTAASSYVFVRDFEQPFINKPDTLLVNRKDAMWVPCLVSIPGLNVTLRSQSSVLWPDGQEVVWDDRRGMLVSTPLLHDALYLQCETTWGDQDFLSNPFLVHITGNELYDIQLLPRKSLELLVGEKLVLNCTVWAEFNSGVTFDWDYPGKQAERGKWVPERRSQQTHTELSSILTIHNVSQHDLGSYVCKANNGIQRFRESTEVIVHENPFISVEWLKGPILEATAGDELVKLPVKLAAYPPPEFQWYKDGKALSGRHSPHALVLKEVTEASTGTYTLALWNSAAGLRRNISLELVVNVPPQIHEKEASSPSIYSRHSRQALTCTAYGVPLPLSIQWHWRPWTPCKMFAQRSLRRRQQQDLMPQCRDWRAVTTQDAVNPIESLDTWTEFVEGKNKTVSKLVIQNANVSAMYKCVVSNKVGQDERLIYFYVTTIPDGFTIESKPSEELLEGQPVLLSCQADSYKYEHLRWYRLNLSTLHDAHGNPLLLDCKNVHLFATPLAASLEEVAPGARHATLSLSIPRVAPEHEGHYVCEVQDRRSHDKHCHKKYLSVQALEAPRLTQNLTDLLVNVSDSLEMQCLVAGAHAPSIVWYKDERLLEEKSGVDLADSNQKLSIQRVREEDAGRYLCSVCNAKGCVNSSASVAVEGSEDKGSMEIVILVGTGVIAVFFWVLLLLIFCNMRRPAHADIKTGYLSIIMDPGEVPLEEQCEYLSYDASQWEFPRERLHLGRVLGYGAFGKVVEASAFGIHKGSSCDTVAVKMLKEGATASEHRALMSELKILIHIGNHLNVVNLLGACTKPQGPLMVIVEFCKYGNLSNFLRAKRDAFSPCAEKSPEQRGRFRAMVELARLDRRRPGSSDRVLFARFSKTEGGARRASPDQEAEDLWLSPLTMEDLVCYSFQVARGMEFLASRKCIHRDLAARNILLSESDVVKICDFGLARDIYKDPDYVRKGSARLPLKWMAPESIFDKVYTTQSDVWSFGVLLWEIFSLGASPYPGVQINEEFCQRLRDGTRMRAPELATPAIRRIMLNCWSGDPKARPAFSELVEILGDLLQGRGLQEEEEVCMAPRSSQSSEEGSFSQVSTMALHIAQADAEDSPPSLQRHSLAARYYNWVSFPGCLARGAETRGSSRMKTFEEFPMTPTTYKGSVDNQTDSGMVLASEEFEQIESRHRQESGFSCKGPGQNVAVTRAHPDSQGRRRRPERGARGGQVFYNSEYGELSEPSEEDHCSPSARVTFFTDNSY

Serine/threonine-protein kinase 10 (Homo sapiens), sequence (O94804 whole entry, looked up): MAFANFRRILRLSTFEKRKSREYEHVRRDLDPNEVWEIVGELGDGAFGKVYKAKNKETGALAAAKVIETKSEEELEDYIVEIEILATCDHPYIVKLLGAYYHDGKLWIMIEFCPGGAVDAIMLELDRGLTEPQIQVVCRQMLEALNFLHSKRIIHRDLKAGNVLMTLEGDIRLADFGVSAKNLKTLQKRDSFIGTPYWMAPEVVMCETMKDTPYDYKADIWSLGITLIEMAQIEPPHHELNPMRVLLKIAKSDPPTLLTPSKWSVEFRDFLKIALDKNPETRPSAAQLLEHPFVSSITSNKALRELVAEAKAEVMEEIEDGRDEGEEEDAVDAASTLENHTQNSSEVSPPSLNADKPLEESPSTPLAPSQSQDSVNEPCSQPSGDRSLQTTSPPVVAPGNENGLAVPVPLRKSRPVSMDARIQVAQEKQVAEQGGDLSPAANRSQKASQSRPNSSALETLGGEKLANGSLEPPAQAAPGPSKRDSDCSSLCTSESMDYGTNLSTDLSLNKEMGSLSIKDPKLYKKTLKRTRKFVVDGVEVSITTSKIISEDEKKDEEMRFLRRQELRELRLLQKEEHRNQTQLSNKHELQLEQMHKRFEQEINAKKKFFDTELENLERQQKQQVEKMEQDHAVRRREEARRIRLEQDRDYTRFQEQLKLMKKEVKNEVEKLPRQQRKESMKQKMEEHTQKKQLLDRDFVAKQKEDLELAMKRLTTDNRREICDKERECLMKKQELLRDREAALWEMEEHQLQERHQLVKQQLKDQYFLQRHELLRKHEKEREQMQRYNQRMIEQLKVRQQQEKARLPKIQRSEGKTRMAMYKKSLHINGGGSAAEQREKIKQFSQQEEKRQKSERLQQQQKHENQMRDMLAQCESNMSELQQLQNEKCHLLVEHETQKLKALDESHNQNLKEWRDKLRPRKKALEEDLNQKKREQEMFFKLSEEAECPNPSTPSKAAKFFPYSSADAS
TGF-beta receptor type-2 (Homo sapiens), sequence (P37173 whole entry): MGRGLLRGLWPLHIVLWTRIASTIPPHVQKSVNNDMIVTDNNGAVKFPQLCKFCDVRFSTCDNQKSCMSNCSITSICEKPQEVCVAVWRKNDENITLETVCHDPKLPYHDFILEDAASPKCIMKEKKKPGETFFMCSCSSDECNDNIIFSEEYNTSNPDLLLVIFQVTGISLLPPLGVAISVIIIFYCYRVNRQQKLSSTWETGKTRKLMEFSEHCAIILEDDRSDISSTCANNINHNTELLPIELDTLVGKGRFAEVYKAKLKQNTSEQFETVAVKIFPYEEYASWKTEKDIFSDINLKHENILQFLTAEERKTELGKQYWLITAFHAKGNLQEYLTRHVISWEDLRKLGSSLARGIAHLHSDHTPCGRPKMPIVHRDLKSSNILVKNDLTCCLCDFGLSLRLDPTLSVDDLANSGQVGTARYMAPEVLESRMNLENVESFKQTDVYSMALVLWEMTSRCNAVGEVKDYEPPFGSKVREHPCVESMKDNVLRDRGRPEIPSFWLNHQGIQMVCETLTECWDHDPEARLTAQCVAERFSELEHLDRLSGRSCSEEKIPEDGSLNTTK
Tyrosine-protein kinase Fyn (Homo sapiens), sequence (P06241 2-537 limits assumed): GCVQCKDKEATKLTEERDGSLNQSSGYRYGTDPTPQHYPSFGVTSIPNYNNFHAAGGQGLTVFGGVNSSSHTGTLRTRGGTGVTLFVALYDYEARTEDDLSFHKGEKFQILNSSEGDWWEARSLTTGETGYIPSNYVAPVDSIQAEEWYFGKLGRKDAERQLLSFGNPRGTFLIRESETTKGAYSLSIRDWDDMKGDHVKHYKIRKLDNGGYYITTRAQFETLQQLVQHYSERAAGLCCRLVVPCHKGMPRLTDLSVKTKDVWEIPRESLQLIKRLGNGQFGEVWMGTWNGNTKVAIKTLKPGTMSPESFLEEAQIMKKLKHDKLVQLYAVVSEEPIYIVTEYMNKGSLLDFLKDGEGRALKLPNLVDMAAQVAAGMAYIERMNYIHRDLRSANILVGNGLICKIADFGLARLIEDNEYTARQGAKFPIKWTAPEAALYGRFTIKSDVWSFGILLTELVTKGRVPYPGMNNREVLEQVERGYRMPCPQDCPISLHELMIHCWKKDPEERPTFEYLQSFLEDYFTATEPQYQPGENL

## CC(C)S(=O)(=O)c1ccc2nccc(Nc3ccc4scnc4c3)c2c1
[1]
  residual activity: 90.4%
[2]
  residual activity: 99.4%
[3]
  residual activity: 95.7%
[4]
  residual activity: 18%
[5]
  residual activity: 95.2%
[6]
  residual activity: 88.3%
[7]
  residual activity: 70.9%
[8]
  residual activity: 101%
[9]
  residual activity: 83.1%

## Cc1cc(-c2cnc(N)c3c(-c4ccc5scnc5c4)csc23)n(C)n1
[1]
  residual activity: 69.9%
[2]
  residual activity: 95.2%
[3]
  residual activity: 94.2%
[4]
  residual activity: 5.73%
[5]
  residual activity: 105%
[6]
  residual activity: 89.6%
[7]
  residual activity: 78.2%
[8]
  residual activity: 35.2%
[9]
  residual activity: 103%

## CNC(=O)c1ccc2c(c1)ncn2-c1ccc(CC(=O)OC(C)(C)C)cc1
[1]
  residual activity: 90.1%
[2]
  residual activity: 98.6%
[3]
  residual activity: 94.2%
[4]
  residual activity: 79.4%
[5]
  residual activity: 96.8%
[6]
  residual activity: 51.5%
[7]
  residual activity: 96.8%
[8]
  residual activity: 73.3%
[9]
  residual activity: 78.8%

— ChEMBL document CHEMBL5649166, “RIP3 induces apoptosis independent of pronecrotic kinase activity” (Mol Cell, 2014)
